Assay results taken from patent publication US10633407B2, “14-membered ketolides and methods of their preparation and use” (President and Fellows of Harvard College, priority 2014, dated 2020).
Read-outs that look alike come from different tables or passages of the source.

Experiments:
Experiment in all cases: CLSI broth dilution MIC determination
Format in all cases: cell-based
E. coli ATCC 25922 = test system: E. coli ATCC 25922
Procedure, shortened: (§1)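 Method: CLSI broth dilution; endpoint: MIC. Macrolide controls azithromycin and solithromycin added in many cases.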

E. coli CTX-M-14 = test system: E. coli CTX-M-14
Procedure, shortened: as §1

E. coli NDM-1 = test system: E. coli NDM-1
Procedure, shortened: as §1

E. coli TEM-1 = test system: E. coli TEM-1
Procedure, shortened: as §1

H. influenzae ATCC49247 = test system: H. influenzae ATCC49247
Procedure, shortened: as §1

K. pneumoniae TEM-10 = test system: K. pneumoniae TEM-10
S. aureus ATCC 29213 = test system: S. aureus ATCC 29213
Procedure, shortened: as §1

S. aureus MRSA: USA100 = test system: S. aureus MRSA: USA100
Procedure, shortened: as §1

S. aureus MRSA: USA300 = test system: S. aureus MRSA: USA300
Procedure, shortened: as §1

S. aureus USA600, GISA = test system: S. aureus USA600, GISA
Procedure, shortened: as §1

S. aureus erm A genotype = test system: S. aureus erm A genotype
Procedure, shortened: as §1

S. pneumoniae ATCC 49619 = settings: S. pneumoniae ATCC 49619; Gram-positive
Procedure, shortened: as §1

[1] = test system: S. pneumoniae erm B + mef A genotype
Procedure, shortened: as §1

[2] = test system: S. pneumoniae erm B + tet(M,O) genotype; settings: Streptococcus pneumoniae
Procedure, shortened: as §1

[3] = test system: S. pneumoniae mef A genotype (second strain so labelled)
Procedure, shortened: as §1

S. pyogenes ATCC 19615 = settings: S. pyogenes ATCC 19615; Gram-positive
[4] = test system: S. pyogenes Macrolide-resistant; settings: S. pyogenes Macrolide-resistant; Gram-positive
E. faecalis ATCC 29212 = test system: E. faecalis ATCC 29212
[5] = test system: E. faecalis Vancomycin-resistant; settings: E. faecalis Vancomycin-resistant; Gram-positive
A. baumannii ATCC 19606 = test system: A. baumannii ATCC 19606
[6] = test system: A. baumannii imipenem-resistant
[7] = test system: A. baumannii chromosomal class C
A. baumannii IMP-4 = test system: A. baumannii IMP-4
K. pneumoniae ATCC 10031 = test system: K. pneumoniae ATCC 10031
K. pneumoniae KPC-2 = test system: K. pneumoniae KPC-2
K. pneumoniae SHV-12 = test system: K. pneumoniae SHV-12
P. aeruginosa ATCC 27853 = test system: P. aeruginosa ATCC 27853
[8] = test system: P. aeruginosa HPA101-1477
[9] = test system: H. influenzae Erythro >4, Azithro 1
Source text: MIC data was collected for the novel macrolides that this platform has produced against over 21 unique strains of B. subtilis, E. coli, S. aureus, S. pneumoniae, and H. influenzae, including several multidrug-resistant strains, with a special focus on macrolide resistant mechanisms (vide supra). […] CLSI standard procedures for broth dilution MIC determination were used. […] These genotypes can be constitutive or inducible.

[10] = Haemophilus influenzae, read-out: MIC
[11] = Acinetobacter baumannii, read-out: MIC

Measured: MIC

CC[C@H]1OC(=O)[C@@](C)(F)C(=O)[C@H](C)[C@@H](OC2OC(C)CC(N(C)C)C2O)[C@](C)(OC)C[C@@H](C)C(=O)[C@H](C)[C@H]2N(CCCCn3cc(-c4cccc(N)c4)nn3)C(=O)O[C@]12C (stereo partly shown) [Solithro, solithromycin, reference compound]
2 µg/mL: [9]; H. influenzae Erythro >4, Azithro 1, Gram-negative | [9]; [10]
16 µg/mL: E. coli ATCC 25922; E. coli ATCC 25922 (MP-4)
8 µg/mL: A. baumannii ATCC 19606; A. baumannii ATCC 19606, Gram-negative | A. baumannii ATCC 19606; Acinetobacter baumannii, ATCC19606, A. baumannii ATCC 19606 (MP-15), read-out: MIC | [7]; [11] | [7]; Gram-negative | K. pneumoniae ATCC 10031; K. pneumoniae ATCC 10031, Gram-negative | K. pneumoniae ATCC 10031; Klebsiella pneumoniae, ATCC10031, K. pneumoniae ATCC 10031 (MP-14), read-out: MIC
4 µg/mL: H. influenzae ATCC49247; Gram-negative | H. influenzae ATCC49247; [10] | [6]; [11] | [6]; Gram-negative | K. pneumoniae ATCC 10031; K. pneumoniae ATCC 10031 (MP-14)
0.125 µg/mL: S. aureus ATCC 29213; S. aureus ATCC 29213, Gram-positive | S. aureus ATCC 29213; Staphylococcus aureus, ATCC29213 | S. aureus MRSA: USA300; Staphylococcus aureus, S. aureus MRSA: USA300 (MP-549, msr(a)) | [3]; Gram-positive | [3]; Streptococcus pneumoniae, second strain (MP-627 UNT-039)
< 0.0312 µg/mL: S. pneumoniae ATCC 49619 | [2] | S. pyogenes ATCC 19615 | E. faecalis ATCC 29212; E. faecalis ATCC 29212, Gram-positive | E. faecalis ATCC 29212; Enterococcus faecalis, ATCC29212, E. faecalis ATCC 29212 (MP-24), read-out: MIC
< 0.015 µg/mL: [3]; Streptococcus pneumoniae, second strain (MP-627 UNT-039), read-out: MIC
> 32 µg/mL: E. coli CTX-M-14; Escherichia coli, CTXM14, read-out: MIC | E. coli CTX-M-14; Gram-negative | E. coli NDM-1; Escherichia coli, NDM1, read-out: MIC | E. coli NDM-1; Gram-negative | K. pneumoniae TEM-10; Gram-negative | K. pneumoniae TEM-10; Klebsiella pneumoniae, TEM10, read-out: MIC | S. aureus MRSA: USA100; S. aureus MRSA: USA100, Gram-positive | S. aureus MRSA: USA100; Staphylococcus aureus, S. aureus MRSA: USA100 (MP-618 UNT-096), read-out: MIC | S. aureus USA600, GISA; S. aureus USA600, GISA, Gram-positive | S. aureus USA600, GISA; Staphylococcus aureus, S. aureus USA600, GISA (MP-619 UNT-120), read-out: MIC | S. aureus erm A genotype; S. aureus erm A genotype, Gram-positive | S. aureus erm A genotype; Staphylococcus aureus, S. aureus erm A genotype (MP-620 UNT-146), read-out: MIC | A. baumannii IMP-4; Acinetobacter baumannii, IMP4, read-out: MIC | A. baumannii IMP-4; Gram-negative | K. pneumoniae KPC-2; Gram-negative | K. pneumoniae KPC-2; Klebsiella pneumoniae, KPC2, read-out: MIC | K. pneumoniae SHV-12; Gram-negative | K. pneumoniae SHV-12; Klebsiella pneumoniae, SHV12, read-out: MIC | P. aeruginosa ATCC 27853; P. aeruginosa ATCC 27853, Gram-negative | P. aeruginosa ATCC 27853; Pseudomonas aeruginosa, ATCC27853, P. aeruginosa ATCC 27853 (MP-3), read-out: MIC | [8]; Gram-negative | [8]; Pseudomonas aeruginosa, HPA1011477, read-out: MIC
0.25 µg/mL: [1]; S. pneumoniae erm B + mef A genotype, Gram-positive | [1]; Streptococcus pneumoniae
0.03 µg/mL: E. faecalis ATCC 29212; E. faecalis ATCC 29212 (MP-24)
0.0625 µg/mL: [4]
32 µg/mL: E. coli ATCC 25922; E. coli ATCC 25922, Gram-negative | E. coli ATCC 25922; Escherichia coli, ATCC25922, E. coli ATCC 25922 (MP-4), read-out: MIC | E. coli TEM-1; E. coli TEM-1, Gram-negative | E. coli TEM-1; Escherichia coli, TEM1 | [5]
1 µg/mL: S. aureus MRSA: USA300; S. aureus MRSA: USA300, Gram-positive | S. aureus MRSA: USA300; Staphylococcus aureus, S. aureus MRSA: USA300 (MP-549, msr(a)), read-out: MIC
